Measurements reported in patent US20100152141A1, “COMBINATIONS COMPRISING 5HT6 MODULATORS AND CHOLINESTERASE INHIBITORS” (EPIX DELAWARE, INC, priority 2006, published 2010).
pKi: −log10 of the molar value.

What was measured:
5-HT6 receptor = 5-HT6 receptor (Homo sapiens, UniProt P50406); test: 5-HT6 receptor affinity (Ki) of Compound A; type: binding
[1] = system: adult male Lister hooded rats; test: novel object discrimination (NOD) task, natural forgetting with 4 h inter-trial interval; type: in vivo, rat
Procedure: NOD testing was performed as described by King et al. (2004 Neuropharmacol. 47 195), and used five separate groups (n=12) of adult male Lister hooded rats (145-235 g). Within each group rats were tested on 3-4 occasions (at one-week intervals) to receive all possible treatment combinations and serve as their own controls.

Chain of 5-HT6 receptor (P50406 whole entry): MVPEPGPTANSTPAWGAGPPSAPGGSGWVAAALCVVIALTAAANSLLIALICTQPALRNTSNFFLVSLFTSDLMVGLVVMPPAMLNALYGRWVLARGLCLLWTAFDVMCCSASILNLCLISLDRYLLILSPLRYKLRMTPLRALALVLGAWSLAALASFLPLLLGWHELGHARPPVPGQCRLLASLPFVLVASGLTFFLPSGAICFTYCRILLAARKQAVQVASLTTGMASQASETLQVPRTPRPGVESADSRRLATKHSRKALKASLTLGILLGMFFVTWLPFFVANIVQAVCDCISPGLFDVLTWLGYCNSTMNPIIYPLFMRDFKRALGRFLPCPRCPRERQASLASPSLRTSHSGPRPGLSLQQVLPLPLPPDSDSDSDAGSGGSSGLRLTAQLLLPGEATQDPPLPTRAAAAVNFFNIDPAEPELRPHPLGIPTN

COc1cc(Cl)cc(C(C)Nc2cc(N3CCNCC3)ccc2S(C)(=O)=O)c1OC.Cl (stereo not shown) [Compound A, [1-(5-Chloro-2,3-dimethoxy-phenyl)-ethyl]-(2-methanesulfonyl-5-piperazin-1-yl-phenyl)-amine hydrochloride]
pKi (5-HT6 receptor): 8.40 | natural forgetting (discrimination of novel versus familiar object) ([1]; Compound A 0.3 mg/kg i.p. combined with sub-efficacious dose (0.1 mg/kg i.p.) of Aricept, novel versus familiar p<0.01): restored discrimination | natural forgetting (discrimination of novel versus familiar object) ([1]; Compound A 0.3 mg/kg i.p. given alone): lacked significant effect | natural forgetting (discrimination of novel versus familiar object) ([1]; Compound A 1 mg/kg i.p. combined with sub-efficacious dose (0.1 mg/kg i.p.) of Aricept, novel versus familiar p<0.05): restored discrimination | natural forgetting (discrimination of novel versus familiar object) ([1]; Compound A 1 mg/kg i.p. given alone): lacked significant effect | natural forgetting (discrimination of novel versus familiar object) ([1]; Compound A 3 mg/kg i.p., 40 min pre-treatment, 4 h inter-trial interval, novel versus familiar p<0.001): prevented this natural forgetting | discrimination ratio versus vehicle ([1]; Compound A 3 mg/kg i.p., 40 min pre-treatment, p<0.05 repeated measures ANOVA): increased the discrimination ratio from vehicle levels | natural forgetting (discrimination of novel versus familiar object) ([1]; Compound A 10 mg/kg i.p., 40 min pre-treatment, 4 h inter-trial interval, novel versus familiar p<0.01): prevented this natural forgetting | discrimination ratio versus vehicle ([1]; Compound A 10 mg/kg i.p., 40 min pre-treatment, p<0.05 repeated measures ANOVA): increased the discrimination ratio from vehicle levels

COc1cc2c(cc1OC)C(=O)C(CC1CCN(Cc3ccccc3)CC1)C2 (stereo not shown) [Aricept, donepezil, reference compound]
natural forgetting (discrimination of novel versus familiar object) ([1]; Aricept 0.1 mg/kg i.p., 20 min pre-treatment, 4 h inter-trial interval): lacked effect | natural forgetting (discrimination of novel versus familiar object) ([1]; Aricept 0.3 mg/kg i.p., 20 min pre-treatment, 4 h inter-trial interval): lacked effect | discrimination ratio versus vehicle ([1]; Aricept 1 mg/kg i.p., 20 min pre-treatment): without significantly increasing the discrimination ratio | natural forgetting (discrimination of novel versus familiar object) ([1]; Aricept 1 mg/kg i.p., 20 min pre-treatment, 4 h inter-trial interval, novel versus familiar p<0.001): prevented natural forgetting
